Assay results: PubChem BioAssay (NCI)
“And” between values parts separate entries of the source, which are not always exact repeats. Identical values can stand only once.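 Cultured in 96-well plates, cells were exposed to test compound for 48 hours across five concentrations. GI50 = concentration required for 50% inhibition of growth. Definition used: TGI = concentration required for complete inhibition of growth.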

Tests used:
Experiment in all cases: growth of human tumour cells (NCI), 48 h
[1] = tested on: SF-268 CNS
[2] = tested on: SK-MEL-28 melanoma
[3] = tested on: NCI-H23 lung
[4] = tested on: SW-620 colon
[5] = tested on: HOP-92 NSCLC
[6] = tested on: EKVX NSCLC
[7] = tested on: LOX IMVI melanoma
[8] = tested on: UACC-257 melanoma
[9] = tested on: HCT-116 colon
[10] = tested on: MDA-MB-435

Compound	TGI [1] [µM]	TGI [2]	TGI [3] [µM]	TGI [4] [µM]	TGI [5]	TGI [6] [µM]	TGI [7] [µM]	TGI [8] [µM]	TGI [9] [µM]	GI50 [2]	GI50 [3] [µM]	GI50 [5]	GI50 [6] [µM]	GI50 [8]	GI50 [9] [µM]	GI50 [1] [µM]	GI50 [10] [µM]	TGI [10] [µM]	GI50 [7] [µM]	GI50 [4] [µM]
COc1ccccc1NC(=O)C1=C(C)NC(C)=C(C(=O)Nc2ccccc2OC)C1c1cccc2c1OCO2	> 100	> 100 µM	> 100	> 100	> 100 µM	> 100	> 100	> 100	> 100	–	–	–	–	–	–	–	–	–	–	–
COc1cc2c(c(OC)c1OC)-c1ccc(SC)c(=O)cc1C(CC(=O)Oc1cccc(C#N)c1)C2 (configuration not stated)	> 100	> 100 µM	> 34.6	> 100	> 100 µM	> 100	> 33.2	> 100	5.66	–	–	–	–	–	–	–	–	–	–	–
CCOC(=O)[C@H]1Nc2ccc(Cl)cc2[C@H]2c3ccccc3O[C@H]21	> 100	> 100 µM	–	> 100	–	> 100	> 100	> 100	> 100	–	–	–	–	–	–	–	–	–	–	–
COC(=O)C1=Cc2c(cc(OC)c(OC)c2OC)[C@H](c2ccc(OC)c(OC)c2OC)C1C(=O)OC (some centres not stated)	> 100	> 100 µM	> 100	> 100	> 100 µM	> 100	> 100	> 100	> 100	–	–	–	–	–	–	–	–	–	–	–
Cc1cc2c(cc1Br)C1(C)CCC(C)C1(C)O2 (configuration not stated)	> 100	> 100 µM	67.4	> 100	53.7 µM	> 100	35.4	98.8	29.1	–	–	–	–	–	–	–	–	–	–	–
Clc1cc(Cl)cc(Nc2nc3ccccc3nc2-c2cccs2)c1	> 100	–	> 100	> 100	38.1 µM	> 100	> 100	60.4	72	–	–	–	–	–	–	–	–	–	–	–
COc1ccc(-c2nc3sc4c(c3c(=O)[nH]2)CCCC4)c2ccccc12	> 100	–	–	> 100	2.37 µM and 7.9 µM	–	> 100	> 100	–	0.468 µM	0.57	0.0957 µM and 0.599 µM	1.8	1.56 µM and 4.95 µM	0.371	–	–	–	–	–
C[Si]12OCCCN(CCO1)CCO2	> 100	> 100 µM	> 100	> 100	> 100 µM	> 100	–	> 100	> 100	–	–	–	–	–	–	–	–	–	–	–
O=C(O)CCCNS(=O)(=O)c1ccc2ccccc2c1	> 100	> 100 µM	> 100	> 100	> 100 µM	> 100	> 100	> 100	–	–	–	–	–	–	–	–	–	–	–	–
CC1=CC2CC(C)C1(C)CCc1ccoc12 (configuration not stated)	> 100	> 100 µM	> 100	> 100	> 100 µM	> 100	> 100	> 100	> 100	–	–	–	–	–	–	–	–	–	–	–
CN1C(=O)C(c2c[nH]c3ccccc23)=C(c2c(-c3c[nH]c4ccccc34)[nH]c3ccccc23)C1=O	19.5	31.4 µM	4.72	–	–	–	17	13.2	11.2	10.4 µM	1.7	–	–	3.59 µM	3.68	4.07	1.71	4.11	4.67	–
CC(=O)O[C@H]1CC[C@@]2(C)C(=CC[C@@H]3C2CC[C@]2(C)Nc4[nH]ncc4CC32)C1 (some centres not stated)	–	> 100 µM	> 100	> 100	–	> 100	–	30.8	29.9	–	–	–	–	–	–	–	–	–	–	–
COc1ccc(-c2csc3c2-n2cccc2C3=O)cc1O	> 82.2	–	> 42.4	> 100	–	–	> 100	> 100	17	–	0.056	–	–	1.36 µM	0.0271	< 0.0284	< 0.01	0.0102	< 0.0182	< 0.0122
O=C(O)c1ccc(C2C3C=CC(C3)C2[N+](=O)[O-])cc1 (configuration not stated)	> 100	> 100 µM	> 100	> 100	–	> 100	> 100	> 100	–	–	–	–	–	–	–	–	–	–	–	–
CC1CC2(CCC1OCc1ccccc1)OCCO2 (configuration not stated)	–	–	> 100	> 100	> 100 µM	> 100	> 100	> 100	> 100	–	–	–	–	–	–	–	–	–	–	–
C=C1C(=O)O[C@H]2C[C@@H]1CCC1(C)OC1CC/C(C)=C/CC[C@H]2C (some centres not stated)	37	–	37.1	36.9	–	44.3	38.6	37.2	31.5	–	19.6	–	24.3	19.2 µM	17.7	18.7	18.9	34.6	24	19.2

Compound	TGI [1] [µM]	TGI [2]	TGI [3] [µM]	TGI [4] [µM]	TGI [5]	TGI [6] [µM]	TGI [7] [µM]	TGI [8] [µM]	TGI [9] [µM]	GI50 [2]	GI50 [3] [µM]	GI50 [5]	GI50 [6] [µM]	GI50 [8]	GI50 [9] [µM]	GI50 [1] [µM]	GI50 [10] [µM]	TGI [10] [µM]	GI50 [7] [µM]	GI50 [4] [µM]
CN(CCN(C)C(=O)CCOS(C)(=O)=O)C(=O)CCOS(C)(=O)=O	> 100	> 100 µM	> 100	> 100	> 100 µM	> 100	> 100	> 100	> 100	–	–	–	–	–	–	–	–	–	–	–
OCc1ccc(Oc2c3ccccc3nc3occc23)cc1	66.7	> 100 µM	40.3	–	–	–	–	74.7	29.4	41.4 µM	17.9	–	–	30 µM	15.9	20.6	15.5	38.2	–	–
COc1ccccc1NC(=O)CC(=O)NNCC(=O)Nc1nnc(-c2ccccc2)o1	> 100	> 100 µM	> 100	> 100	–	> 100	> 100	> 100	> 100	–	–	–	–	–	–	–	–	–	–	–
Cn1c(=O)oc2cc(C3CCC(=O)N3Cc3ccc(Cl)cc3)ccc21 (configuration not stated)	> 100	> 100 µM	> 100	> 100	–	> 100	> 100	> 100	> 100	–	–	–	–	–	–	–	–	–	–	–
COc1ccc2c(c1)CCCC1C3=NCCC3(C)CSC21 (configuration not stated)	> 100	> 100 µM	> 100	> 100	–	–	> 100	–	> 100	–	–	–	–	–	–	–	–	–	–	–
NC(=O)c1c2c(cc3c(=O)c4ccccc4[nH]c13)CCCC2	> 100	> 100 µM	> 100	> 100	> 100 µM	> 100	> 100	> 100	> 100	–	–	–	–	–	–	–	–	–	–	–
COC(=O)[C@]12CC=C3O[C@@H]4OC5(CCCCC5)O[C@@H]4[C@H]3C1C(=O)C=CC2=O (some centres not stated)	30	34.2 µM	33.6	32.1	33.1 µM	52.1	35.2	32.5	32.4	–	–	–	–	–	–	–	–	–	–	–
CCOC(=O)c1cnc2cc3cccccc3n2c1=O	> 100	> 100 µM	> 100	> 100	–	> 100	> 100	> 100	> 100	–	–	–	–	–	–	–	–	–	–	–
CCC[CH2][Sn]1([CH2]CCC)[O]C(=O)CN=Cc2ccccc2[O]1	0.859	1.1 µM	0.333	0.434	0.519 µM	1.81	0.527	0.419	2.09	0.343 µM	0.136	0.182 µM	0.477	0.164 µM	0.71	0.286	–	–	0.205	0.175
O=CN1CCN(C=S)CC1	> 100	> 100 µM	> 100	> 100	> 100 µM	> 100	> 100	> 100	> 100	–	–	–	–	–	–	–	–	–	–	–
COc1cc(OC)cc(-c2cncn2-c2ccc(-c3nc4cc(OC)cc(OC)c4s3)cc2)c1	> 100	> 100 µM	> 100	–	–	–	> 100	> 100	> 100	> 100 µM	10.3	–	–	> 100 µM	4.94	11.3	–	–	5.48	–
CCCCCCCCCCCCCCCCn1cc[n+](Cc2ccccc2)c1C	1.77	4.22 µM and 1.35 µM	1.8	–	–	2.28	–	11.2	–	1.7 µM and 0.246 µM	0.361	–	0.703	1.27 µM	–	0.548	–	–	–	–
COc1ccc(-c2ccccc2)cc1-c1c(Nc2cc(Cl)cc(Cl)c2O)c(=O)c1=O	> 50	> 50 µM	> 50	> 50	2.81 µM	> 50	> 50	4.77	> 50	2.05 µM	1.38	0.929 µM	1.51	1.44 µM	1.58	1.31	–	–	1.72	1.7
CCOC(=O)C(=O)Nc1ccc(Cl)c(C(F)(F)F)c1	> 100	> 100 µM	> 100	> 100	–	> 100	> 100	> 100	> 100	–	–	–	–	–	–	–	–	–	–	–
NC1=NC(c2ccc(F)cc2)C2=C(N1)c1ccc3ccccc3c1OCC2 (configuration not stated)	> 100	> 100 µM	> 100	–	> 100 µM	75.2	> 100	> 100	–	18.6 µM	50.7	36.3 µM	5.95	34.2 µM	–	18.2	–	–	> 100	–
CC(=O)NC1=C(NCc2ccc(Cl)cc2)C(=O)c2ccccc2C1=O	> 50	11.5 µM	13.5	13.6	–	31.4	20.9	12.4	9.35	–	–	–	–	–	–	–	–	–	–	–
